Where “and” joins values, the source holds several entries; their conditions need not be identical. Equal values may be shown once.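 Cells were grown in 96-well plates and exposed to each compound for 48 hours at five concentrations; endpoints were interpolated linearly between bracketing concentrations, or set to the highest concentration if not reached. Here, GI50 denotes the concentration required for 50% inhibition of growth. Definition used: TGI = concentration required for complete inhibition of growth.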
Legend:
Assay in all cases: NCI tumour cell line growth inhibition, 48 h
COLO 205 colon = system: COLO 205 colon
HCC-2998 colon = system: HCC-2998 colon
HOP-62 NSCLC = system: HOP-62 NSCLC
HT29 colon = system: HT29 colon
OVCAR-8 ovarian = system: OVCAR-8 ovarian
SF-295 CNS = system: SF-295 CNS
SN12C renal = system: SN12C renal
SNB-19 CNS = system: SNB-19 CNS
UO-31 renal = system: UO-31 renal
PC-3 prostate = system: PC-3 prostate

| SMILES | TGI (COLO 205 colon) | TGI (HCC-2998 colon) | TGI (HOP-62 NSCLC) | TGI (HT29 colon) | TGI (OVCAR-8 ovarian) | TGI (SF-295 CNS) | TGI (SN12C renal) | TGI (SNB-19 CNS) | TGI (UO-31 renal) | TGI (PC-3 prostate) | GI50 (COLO 205 colon) | GI50 (HCC-2998 colon) | GI50 (HOP-62 NSCLC) | GI50 (HT29 colon) | GI50 (OVCAR-8 ovarian) | GI50 (PC-3 prostate) | GI50 (SN12C renal) | GI50 (SNB-19 CNS) | GI50 (UO-31 renal) | GI50 (SF-295 CNS) |
| --- | --- | --- | --- | --- | --- | --- | --- | --- | --- | --- | --- | --- | --- | --- | --- | --- | --- | --- | --- | --- |
| CC[As](CC)SCC1OC(OC(C)=O)C(OC(C)=O)C(OC(C)=O)C1OC(C)=O (centres undefined) | 10 µM | 31.7 µM | 38.3 µM | 54 µM | 31.9 µM | 35.7 µM | 28.4 µM | 33.5 µM | 29.8 µM |  |  |  |  |  |  |  |  |  |  |  |
| CC1=CC[C@@H](C(C)(C)O)C[C@@H]1O | > 5000 µM | > 5000 µM | > 5000 µM | > 5000 µM | > 5000 µM | > 5000 µM | > 5000 µM | > 5000 µM | > 5000 µM |  |  |  |  |  |  |  |  |  |  |  |
| CC(C)C1=CC2=C(C(=O)C1=O)C13CCCC(C)(C)C1CC2OC3=O (centres undefined) | 34.8 µM | 46.3 µM |  | 26.3 µM | 35.4 µM | > 100 µM | 43.6 µM | > 100 µM | 40.8 µM | 63.2 µM |  |  |  |  |  |  |  |  |  |  |
| NC(=O)c1csc(-c2ccc(CO)o2)n1 | > 100 µM |  |  | > 100 µM | > 100 µM | > 100 µM | > 100 µM | > 100 µM | > 100 µM | > 100 µM |  |  |  |  |  |  |  |  |  |  |
| Cc1cc(C)nc(NS(=O)(=O)c2ccc(NC(=O)COC(=O)c3cccc4c(=O)c5ccccc5[nH]c34)cc2)n1 | > 100 µM | 37.9 µM | 47.4 µM | > 100 µM | > 100 µM | 95.5 µM | > 100 µM | 77.2 µM | > 100 µM |  |  |  |  |  |  |  |  |  |  |  |
| O=C(O)c1ccc(/C=N/N=C2c3ccccc3-c3ccccc32)cc1 | > 100 µM |  | > 100 µM | > 100 µM | > 100 µM | 32.6 µM | > 100 µM | > 100 µM | > 100 µM | > 100 µM |  |  |  |  |  |  |  |  |  |  |
| COc1ccc([C@@H]2OC(=O)C3C2C(=O)O[C@H]3c2ccc(OC)cc2)cc1 (some centres undefined) | > 100 µM | > 100 µM | > 100 µM | > 100 µM | > 100 µM | > 100 µM | > 100 µM | > 100 µM | > 100 µM |  |  |  |  |  |  |  |  |  |  |  |
| COc1cc(CC(=O)O)c([N+](=O)[O-])cc1OC | > 100 µM | > 100 µM | > 100 µM | > 100 µM | > 100 µM | > 100 µM | > 100 µM | > 100 µM | > 100 µM |  |  |  |  |  |  |  |  |  |  |  |
| CC/C(=C(/c1ccc(OCCN(C)C)cc1)c1ccc(OC(=O)CCCCCCCCC(=O)c2c(C)[nH]c(/C=C3\N=C(c4ccc[nH]4)C=C3OC)c2C)cc1)c1ccccc1 | 78 µM | > 100 µM | > 100 µM | > 100 µM | > 100 µM |  | > 100 µM | 50.7 µM | > 100 µM | > 100 µM | 8.2 µM | > 100 µM | 17 µM | 5.18 µM | 9.06 µM | 5.86 µM | 7.55 µM | 12.1 µM | 4.45 µM |  |
| CN1CCN(CCC=C2c3ccccc3Sc3ccc(S(=O)(=O)N(C)C)cc32)CC1 | 2.82 µM and 3.7 µM | 3.21 µM and 6.84 µM | 23.3 µM and 33 µM | 3.26 µM and 2.91 µM | 24.6 µM and 36.4 µM |  | 34.6 µM and > 49.3 µM |  | 25.1 µM and 21.1 µM | 32.5 µM and > 43.1 µM | 1.44 µM and 1.66 µM | 1.55 µM and 2.57 µM | 5.73 µM and 14.6 µM | 1.42 µM and 0.872 µM | 5.85 µM and 15.2 µM | 3.7 µM and 7.99 µM | 6.23 µM and 13.8 µM |  | 3.46 µM and 4.23 µM |  |
| O=C(Nc1cccc(-n2cc(-c3ccncc3)c(-c3ccc(Cl)c(O)c3)n2)c1)Nc1ccc(Cl)c(Cl)c1 | 9.49 µM | 13.9 µM | 17.6 µM | > 32.5 µM | > 32.5 µM |  | > 32.5 µM | > 32.5 µM | > 32.5 µM | > 32.5 µM | 3.96 µM | 2.89 µM | 2.08 µM | 4.89 µM | 1.21 µM | 0.834 µM | 1.31 µM | 1.46 µM | 1.25 µM |  |
| COC(=O)C1=CC(=O)[C@@H]2CCCC[C@H]12 | > 100 µM | > 100 µM | > 100 µM |  | > 100 µM |  | > 100 µM | > 100 µM | > 100 µM |  |  |  |  |  |  |  |  |  |  |  |
| [CH3][Hg]/[N]=C(/N)NC#N | 3.09 µM |  | 36.6 µM | 50.8 µM | 16.1 µM | 54.5 µM | 28.5 µM |  | 28 µM |  | 1.71 µM |  | 19.4 µM | 19.9 µM | 3.63 µM |  | 14 µM |  | 14.7 µM | 18.5 µM |
| Cc1cc(C)c(/C=N/NS(=O)(=O)c2ccccc2)c(C)c1 | > 100 µM | > 100 µM | > 100 µM | > 100 µM | > 100 µM | > 100 µM | > 100 µM |  | > 100 µM |  |  |  |  |  |  |  |  |  |  |  |
| COc1cc(C2CC(c3cccc(Nc4ccnc5cc(Cl)ccc45)c3)=NN2c2ccccc2)cc(OC)c1OC (centres undefined) | 46.3 µM | 33.8 µM | > 100 µM |  | > 100 µM | > 100 µM | > 100 µM | > 100 µM | > 100 µM | > 100 µM | 15.7 µM | 5.32 µM | 3.81 µM |  | 7.68 µM | 1.71 µM | > 100 µM | > 100 µM | 1.68 µM | 3.55 µM |
| COC(=O)c1c2c(c(C)[n+]([O-])c1C)C(=O)C(NCc1ccc(O)cc1)=CC2=O | 2.19 µM | 3.23 µM | 4.57 µM | 4.84 µM | 6.47 µM | 3.17 µM | 2.56 µM |  | 3.06 µM | 6.55 µM | 0.579 µM | 1.46 µM | 1.96 µM | 0.715 µM | 1.08 µM | 2 µM | 1.23 µM |  | 1.53 µM | 1.67 µM |
| Fc1ccc(N=C2C=CC(=Nc3ccc(F)cc3)c3ccccc32)cc1 | > 100 µM | > 100 µM | > 100 µM | > 100 µM | > 100 µM | > 100 µM | > 100 µM | > 100 µM | > 100 µM |  |  |  |  |  |  |  |  |  |  |  |
| CC#CC#C/C(=C/C=CC(=O)OC)SC | > 100 µM | > 100 µM |  | > 100 µM | > 100 µM | > 100 µM | > 100 µM |  |  | > 100 µM |  |  |  |  |  |  |  |  |  |  |

— PubChem BioAssay (NCI)
